Source: patent US5817840A, “Water soluble taxol derivatives” (The Scripps Research Institute, priority 1997, dated 1998)
Where two headings read alike, the source gives them in different places.

Columns and labels:
[1] = system: S1HA (human squamous carcinoma crvx); assay: Cytotoxicity, Example 8; format: cell-based
Procedure: (§1) Tumor or normal cells were cultured in 96-well plates with the test compound in 200 μl of RPMI supplemented with 10% fetal bovine serum (Hyclone, Salt Lake City, Utah) at 37° C. in a humidified atmosphere containing 5% CO2 in air for 72 hours. Sulforhodamine B dissolved in 1% acetic acid was added, and the plates were incubated for 30 minutes at ambient temperature, washed with 1% acetic acid, and blotted. To the air-dried plates were added 100 μl of […] unbuffered TRIS base (pH 10.5) with shaking. The optical densities of the plates were measured with a microplate reader (Molecular Devices Thermomax) at 540 nm. The concentration of compound required to reduce the absorbance to 50% of control samples was recorded as IC50.
(§2) NHDF: Normal human dermal fibroblast (available from Clouelics Corp., San Diego, Calif.); HLF-1: Normal human diploid lung; W1-38; Normal human diploid lung; CHO; Chinese hamster ovary; SK-MEL-28: Melanoma; CAPAN-1: Pancreatic carcinoma; H322: lung carcinoma; MCF-7; Breast carcinoma; BT-549; Human breast ductal carcinoma; OVCAR-3: Human ovarian carcinoma; HT-29: Human adenocarcinoma, colon; SIHA: Human squamous carcinoma crvx; 786-0: Human perirenal cell adenocarci; PC-3: Human prostate adenocarcinoma; HL-60: Human promyelomic leukemia; MOLT-4: Human T-cell leukemia. All cell lines except NHDF are available from the American Tissue Culture Collection, Rockville, Md.

SK-MEL-28 (melanoma) = assay: Cytotoxicity, Example 8; format: cell-based; settings: Homo sapiens
Procedure: as §1, §2

[2] = system: HLF-1 (normal human diploid lung); assay: Cytotoxicity, Example 8; format: cell-based
Procedure: as §1, §2

[3] = system: PC-3 (human prostate adenocarcinoma); assay: Cytotoxicity, Example 8; format: cell-based
Procedure: as §1, §2

[4] = system: BT-549 (human breast ductal carcinoma); assay: Cytotoxicity, Example 8; format: cell-based
Procedure: as §1, §2

[5] = system: OVCAR-3 (human ovarian carcinoma); assay: Cytotoxicity, Example 8; format: cell-based
Procedure: as §1, §2

MCF-7 (breast carcinoma) [6] = assay: Cytotoxicity, Example 8; format: cell-based; settings: Homo sapiens
Procedure: as §1, §2

[7] = system: W1-38 (normal human diploid lung); assay: Cytotoxicity, Example 8; format: cell-based
Procedure: as §1, §2

[8] = system: 786-0 (human perirenal cell adenocarci); assay: Cytotoxicity, Example 8; format: cell-based
Procedure: as §1, §2

[9] = system: CAPAN-1 (pancreatic carcinoma); assay: Cytotoxicity, Example 8; format: cell-based; settings: Homo sapiens
Procedure: as §1, §2

H322 (lung carcinoma) [10] = assay: Cytotoxicity, Example 8; format: cell-based
Procedure: as §1, §2

[11] = system: NHDF (normal human dermal fibroblast); assay: Cytotoxicity, Example 8; format: cell-based
Procedure: as §1, §2

[12] = system: HT-29 (human adenocarcinoma, colon); assay: Cytotoxicity, Example 8; format: cell-based
Procedure: as §1, §2

[13] = system: CHO (Chinese hamster ovary); assay: Cytotoxicity, Example 8; format: cell-based; settings: Cricetulus griseus
Procedure: as §1, §2

NHDF (normal human skin) = assay: Cytotoxicity (sulphorhodamine B), normal cell line, Table 1B; format: cell-based; settings: 72 h
[14] = system: RPMI-7666 (normal human PBLs); assay: as above; format: cell-based; settings: 72 h
SK (melanoma) = assay: Cytotoxicity (sulphorhodamine B), cancer cell line, Table 1B; format: cell-based; settings: 72 h
[15] = system: 786-0 (renal cell carcinoma); assay: as above; format: cell-based; settings: Homo sapiens, 786-0, 72 h
HT-29 (colon carcinoma) = assay: as above; format: cell-based; settings: Homo sapiens, HT-29, 72 h
SIHA (cervix carcinoma) = assay: as above; format: cell-based; settings: Homo sapiens, SiHa, 72 h
[16] = system: PC-3 (prostate carcinoma); assay: as above; format: cell-based; settings: Homo sapiens, 72 h
[17] = system: UCLA-P-3 (lung carcinoma); assay: as above; format: cell-based; settings: Homo sapiens, UCLA P-3, 72 h
[18] = system: broad spectrum of cell lines; assay: Cytotoxicity against a broad spectrum of cell lines (overall); settings: three-day exposure; compared with taxol
Procedure: The protaxols synthesized in this study were tested against a broad spectrum of cell lines ranging from the multiple-drug resistant ovarian (OVCAR-3) to lung (H-322) and leukemia (MOLT-4) cells in order to assess cytotoxicity, cell-type selectivity, and duration of action.
The cytotoxicities were determined using the sulphorhodamine B assay method (Skehan, P. et al. J. Nat. Canc. Inst. 82, 1107 (1990)).

MCF-7 (breast carcinoma) [19] = assay: Cytotoxicity (sulphorhodamine B), cancer cell line, Table 1B; format: cell-based; settings: Homo sapiens, MCF7, 72 h
H322 (lung carcinoma) [20] = assay: as above; format: cell-based; settings: NCI-H322, 72 h
[21] = system: MOLT-4 (T-cell leukaemia); assay: as above; format: cell-based; settings: Homo sapiens, MOLT-4, 72 h
[22] = system: BALB/c 3T3 (normal mouse embryo); assay: Cytotoxicity (sulphorhodamine B), normal cell line, Table 1B; format: cell-based; settings: BALB/c3T3, 72 h
[23] = system: CHO (normal human mammary); assay: as above; format: cell-based; settings: Homo sapiens, 72 h
[24] = system: HL-60 (promyel carcinoma); assay: Cytotoxicity (sulphorhodamine B), cancer cell line, Table 1B; format: cell-based; settings: Homo sapiens, HL-60, 72 h
[25] = system: CHO (Chinese hamster ovary); assay: Cytotoxicity (sulphorhodamine B), normal cell line, Table 1B; format: cell-based; settings: Cricetulus griseus, 72 h
[26] = system: BT-549 (breast carcinoma); assay: Cytotoxicity (sulphorhodamine B), cancer cell line, Table 1B; format: cell-based; settings: Homo sapiens, BT-549, 72 h
[27] = system: OVCAR-3 (ovarian carcinoma); assay: as above; format: cell-based; settings: Homo sapiens, OVCAR-3, 72 h
L1210 (mouse leukaemia) = assay: as above; format: cell-based; settings: L1210, 72 h
Capan-1 (pancreatic) = assay: as above; format: cell-based; settings: Homo sapiens, CAPAN-1, 72 h

Structure (SMILES)	IC50 ([1]; 72 h)	IC50 (NHDF (normal human skin))	IC50 [14]	IC50 (SK (melanoma))	IC50 [15]	IC50 (HT-29 (colon carcinoma))	IC50 (SIHA (cervix carcinoma))	IC50 [16]	IC50 [17]	IC50 (MCF-7 (breast carcinoma) [19])	IC50 (H322 (lung carcinoma) [20])	IC50 [21]	IC50 [22]	IC50 [23]	IC50 [24]	IC50 [25]	IC50 [26]	IC50 [27]	IC50 (L1210 (mouse leukaemia))	IC50 (Capan-1 (pancreatic))	further results
CC(=O)O[C@H]1C(=O)[C@@]2(C)[C@H]([C@H](OC(=O)c3ccccc3)[C@]3(O)C[C@H](OC(=O)[C@H](OC(=O)COCC(=O)O)[C@@H](NC(=O)c4ccccc4)c4ccccc4)C(C)=C1C3(C)C)[C@]1(OC(C)=O)CO[C@@H]1C[C@@H]2O [Compound 3]	1120 µM	–	–	–	–	–	–	–	–	–	–	–	–	–	–	–	–	–	–	–	IC50 (SK-MEL-28 (melanoma); SK-MEL-28, 72 h): 100 µM; IC50 ([2]; HLF1, 72 h): 59.5 µM; IC50 ([3]; 72 h): 65.1 µM; IC50 ([4]; BT-549, 72 h): 51.4 µM; IC50 ([5]; OVCAR-3, 72 h): 0.098 µM; IC50 (MCF-7 (breast carcinoma) [6]; MCF7, 72 h): 357 µM; IC50 ([7]; W138, 72 h): 51.9 µM; IC50 ([8]; 786-0, 72 h): 0.153 µM; IC50 ([9]; CAPAN-1, 72 h): 0.098 µM; IC50 (H322 (lung carcinoma) [10]; NCI-H322, 72 h): 205 µM; IC50 ([11]; 72 h): 103 µM; IC50 ([12]; HT-29, 72 h): 0.01 µM; IC50 ([13]; 72 h): 101 µM
CC(=O)O[C@H]1C(=O)[C@@]2(C)[C@H]([C@H](OC(=O)c3ccccc3)[C@]3(O)C[C@H](OC(=O)[C@H](OC(=O)CSCC(=O)O)[C@@H](NC(=O)c4ccccc4)c4ccccc4)C(C)=C1C3(C)C)[C@]1(OC(C)=O)CO[C@@H]1C[C@@H]2O [Compound 4, 2'-thiodiglycolic taxol]	50 µM	–	–	–	–	–	–	–	–	–	–	–	–	–	–	–	–	–	–	–	IC50 (SK-MEL-28 (melanoma); SK-MEL-28, 72 h): 100 µM; IC50 ([2]; HLF1, 72 h): 3.1 µM; IC50 ([3]; 72 h): 100 µM; IC50 ([4]; BT-549, 72 h): 16 µM; IC50 ([5]; OVCAR-3, 72 h): 0.39 µM; IC50 (MCF-7 (breast carcinoma) [6]; MCF7, 72 h): 100 µM; IC50 ([7]; W138, 72 h): 13 µM; IC50 ([8]; 786-0, 72 h): 6.3 µM; IC50 ([9]; CAPAN-1, 72 h): 0.19 µM; IC50 (H322 (lung carcinoma) [10]; NCI-H322, 72 h): 3.1 µM; IC50 ([11]; 72 h): 50 µM; IC50 ([12]; HT-29, 72 h): 0.19 µM; IC50 ([13]; 72 h): 50 µM
COC(=O)CS(=O)(=O)CC(=O)O[C@@H](C(=O)O[C@H]1C[C@@]2(O)[C@@H](OC(=O)c3ccccc3)[C@@H]3[C@]4(OC(C)=O)CO[C@@H]4C[C@H](O)[C@@]3(C)C(=O)[C@H](OC(C)=O)C(=C1C)C2(C)C)[C@@H](NC(=O)c1ccccc1)c1ccccc1 [Compound 6]	–	1 µM	100 µM	10 µM	10 µM	0.1 µM	100 µM	1 µM	< 0.001 µM	10 µM	0.1 µM	0.1 µM	10 µM	100 µM	0.1 µM	100 µM	0.001 µM	1 µM	10 µM	0.1 µM	cytotoxicity (in words) [18]: lower cytotoxicities
CC(=O)O[C@H]1C(=O)[C@@]2(C)[C@H]([C@H](OC(=O)c3ccccc3)[C@]3(O)C[C@H](OC(=O)[C@H](OC(=O)OCCS(=O)(=O)c4ccc([N+](=O)[O-])cc4)[C@@H](NC(=O)c4ccccc4)c4ccccc4)C(C)=C1C3(C)C)[C@]1(OC(C)=O)CO[C@@H]1C[C@@H]2O [Compound 9]	–	1 µM	100 µM	10 µM	1 µM	0.1 µM	10 µM	1 µM	< 0.001 µM	10 µM	1 µM	0.001 µM	10 µM	100 µM	0.1 µM	100 µM	0.1 µM	1 µM	1 µM	1 µM	cytotoxicity (in words) [18]: lower cytotoxicities
CC(=O)O[C@H]1C(=O)[C@@]2(C)[C@H]([C@H](OC(=O)c3ccccc3)[C@]3(O)C[C@H](OC(=O)[C@H](OC(=O)OCCS(=O)(=O)c4ccc(N)cc4)[C@@H](NC(=O)c4ccccc4)c4ccccc4)C(C)=C1C3(C)C)[C@]1(OC(C)=O)CO[C@@H]1C[C@@H]2O [Compound 10]	–	1 µM	100 µM	10 µM	1 µM	< 0.001 µM	10 µM	1 µM	< 0.001 µM	10 µM	0.01 µM	< 0.001 µM	10 µM	100 µM	< 0.001 µM	100 µM	0.1 µM	< 0.001 µM	10 µM	< 0.001 µM	–
CC(=O)O[C@H]1C(=O)[C@@]2(C)[C@H]([C@H](OC(=O)c3ccccc3)[C@]3(O)C[C@H](OC(=O)[C@H](OC(=O)C[S+]([O-])CC(=O)O)[C@@H](NC(=O)c4ccccc4)c4ccccc4)C(C)=C1C3(C)C)[C@]1(OC(C)=O)CO[C@@H]1C[C@@H]2O (some centres unmarked) [Example 3a]	–	–	–	–	–	–	–	–	–	–	–	–	–	–	–	–	–	–	–	–	IC50 ([1]; S1HA, 72 hours, read-out: IC50): 25 µM; IC50 (SK-MEL-28 (melanoma); SK-MEL-28, 72 hours, read-out: IC50): 100 µM; IC50 ([2]; HLF1, HLF-1, 72 hours, read-out: IC50): 25 µM; IC50 ([3]; PC-3, 72 hours, read-out: IC50): 50 µM; IC50 ([4]; BT-549, 72 hours, read-out: IC50): 0.098 µM; IC50 ([5]; OVCAR-3, 72 hours, read-out: IC50): 0.098 µM; IC50 (MCF-7 (breast carcinoma) [6]; MCF7, MCF-7, 72 hours, read-out: IC50): 39.2 µM; IC50 ([7]; W138, W1-38, 72 hours, read-out: IC50): 25 µM; IC50 ([8]; 786-0, 72 hours, read-out: IC50): 0.15 µM; IC50 ([9]; Capan-1, 72 hours, read-out: IC50): 0.87 µM; IC50 (H322 (lung carcinoma) [10]; NCI-H322, H322, 72 hours, read-out: IC50): 8.3 µM; IC50 ([11]; 72 hours, read-out: IC50): 50 µM; IC50 ([12]; HT-29, 72 hours, read-out: IC50): 0.098 µM; IC50 ([13]; CHO, 72 hours, read-out: IC50): 100 µM
